{"source": "paper PMC12132946", "about": "“Isoflurane activates the type 1 ryanodine receptor to induce anesthesia in mice” (PLOS Biology, 2025)", "key": {"[1]": {"target": "T1, type 1 ryanodine receptor (RyR1) (Oryctolagus cuniculus, UniProt P11716)", "T1 sequence (P11716 whole entry)": "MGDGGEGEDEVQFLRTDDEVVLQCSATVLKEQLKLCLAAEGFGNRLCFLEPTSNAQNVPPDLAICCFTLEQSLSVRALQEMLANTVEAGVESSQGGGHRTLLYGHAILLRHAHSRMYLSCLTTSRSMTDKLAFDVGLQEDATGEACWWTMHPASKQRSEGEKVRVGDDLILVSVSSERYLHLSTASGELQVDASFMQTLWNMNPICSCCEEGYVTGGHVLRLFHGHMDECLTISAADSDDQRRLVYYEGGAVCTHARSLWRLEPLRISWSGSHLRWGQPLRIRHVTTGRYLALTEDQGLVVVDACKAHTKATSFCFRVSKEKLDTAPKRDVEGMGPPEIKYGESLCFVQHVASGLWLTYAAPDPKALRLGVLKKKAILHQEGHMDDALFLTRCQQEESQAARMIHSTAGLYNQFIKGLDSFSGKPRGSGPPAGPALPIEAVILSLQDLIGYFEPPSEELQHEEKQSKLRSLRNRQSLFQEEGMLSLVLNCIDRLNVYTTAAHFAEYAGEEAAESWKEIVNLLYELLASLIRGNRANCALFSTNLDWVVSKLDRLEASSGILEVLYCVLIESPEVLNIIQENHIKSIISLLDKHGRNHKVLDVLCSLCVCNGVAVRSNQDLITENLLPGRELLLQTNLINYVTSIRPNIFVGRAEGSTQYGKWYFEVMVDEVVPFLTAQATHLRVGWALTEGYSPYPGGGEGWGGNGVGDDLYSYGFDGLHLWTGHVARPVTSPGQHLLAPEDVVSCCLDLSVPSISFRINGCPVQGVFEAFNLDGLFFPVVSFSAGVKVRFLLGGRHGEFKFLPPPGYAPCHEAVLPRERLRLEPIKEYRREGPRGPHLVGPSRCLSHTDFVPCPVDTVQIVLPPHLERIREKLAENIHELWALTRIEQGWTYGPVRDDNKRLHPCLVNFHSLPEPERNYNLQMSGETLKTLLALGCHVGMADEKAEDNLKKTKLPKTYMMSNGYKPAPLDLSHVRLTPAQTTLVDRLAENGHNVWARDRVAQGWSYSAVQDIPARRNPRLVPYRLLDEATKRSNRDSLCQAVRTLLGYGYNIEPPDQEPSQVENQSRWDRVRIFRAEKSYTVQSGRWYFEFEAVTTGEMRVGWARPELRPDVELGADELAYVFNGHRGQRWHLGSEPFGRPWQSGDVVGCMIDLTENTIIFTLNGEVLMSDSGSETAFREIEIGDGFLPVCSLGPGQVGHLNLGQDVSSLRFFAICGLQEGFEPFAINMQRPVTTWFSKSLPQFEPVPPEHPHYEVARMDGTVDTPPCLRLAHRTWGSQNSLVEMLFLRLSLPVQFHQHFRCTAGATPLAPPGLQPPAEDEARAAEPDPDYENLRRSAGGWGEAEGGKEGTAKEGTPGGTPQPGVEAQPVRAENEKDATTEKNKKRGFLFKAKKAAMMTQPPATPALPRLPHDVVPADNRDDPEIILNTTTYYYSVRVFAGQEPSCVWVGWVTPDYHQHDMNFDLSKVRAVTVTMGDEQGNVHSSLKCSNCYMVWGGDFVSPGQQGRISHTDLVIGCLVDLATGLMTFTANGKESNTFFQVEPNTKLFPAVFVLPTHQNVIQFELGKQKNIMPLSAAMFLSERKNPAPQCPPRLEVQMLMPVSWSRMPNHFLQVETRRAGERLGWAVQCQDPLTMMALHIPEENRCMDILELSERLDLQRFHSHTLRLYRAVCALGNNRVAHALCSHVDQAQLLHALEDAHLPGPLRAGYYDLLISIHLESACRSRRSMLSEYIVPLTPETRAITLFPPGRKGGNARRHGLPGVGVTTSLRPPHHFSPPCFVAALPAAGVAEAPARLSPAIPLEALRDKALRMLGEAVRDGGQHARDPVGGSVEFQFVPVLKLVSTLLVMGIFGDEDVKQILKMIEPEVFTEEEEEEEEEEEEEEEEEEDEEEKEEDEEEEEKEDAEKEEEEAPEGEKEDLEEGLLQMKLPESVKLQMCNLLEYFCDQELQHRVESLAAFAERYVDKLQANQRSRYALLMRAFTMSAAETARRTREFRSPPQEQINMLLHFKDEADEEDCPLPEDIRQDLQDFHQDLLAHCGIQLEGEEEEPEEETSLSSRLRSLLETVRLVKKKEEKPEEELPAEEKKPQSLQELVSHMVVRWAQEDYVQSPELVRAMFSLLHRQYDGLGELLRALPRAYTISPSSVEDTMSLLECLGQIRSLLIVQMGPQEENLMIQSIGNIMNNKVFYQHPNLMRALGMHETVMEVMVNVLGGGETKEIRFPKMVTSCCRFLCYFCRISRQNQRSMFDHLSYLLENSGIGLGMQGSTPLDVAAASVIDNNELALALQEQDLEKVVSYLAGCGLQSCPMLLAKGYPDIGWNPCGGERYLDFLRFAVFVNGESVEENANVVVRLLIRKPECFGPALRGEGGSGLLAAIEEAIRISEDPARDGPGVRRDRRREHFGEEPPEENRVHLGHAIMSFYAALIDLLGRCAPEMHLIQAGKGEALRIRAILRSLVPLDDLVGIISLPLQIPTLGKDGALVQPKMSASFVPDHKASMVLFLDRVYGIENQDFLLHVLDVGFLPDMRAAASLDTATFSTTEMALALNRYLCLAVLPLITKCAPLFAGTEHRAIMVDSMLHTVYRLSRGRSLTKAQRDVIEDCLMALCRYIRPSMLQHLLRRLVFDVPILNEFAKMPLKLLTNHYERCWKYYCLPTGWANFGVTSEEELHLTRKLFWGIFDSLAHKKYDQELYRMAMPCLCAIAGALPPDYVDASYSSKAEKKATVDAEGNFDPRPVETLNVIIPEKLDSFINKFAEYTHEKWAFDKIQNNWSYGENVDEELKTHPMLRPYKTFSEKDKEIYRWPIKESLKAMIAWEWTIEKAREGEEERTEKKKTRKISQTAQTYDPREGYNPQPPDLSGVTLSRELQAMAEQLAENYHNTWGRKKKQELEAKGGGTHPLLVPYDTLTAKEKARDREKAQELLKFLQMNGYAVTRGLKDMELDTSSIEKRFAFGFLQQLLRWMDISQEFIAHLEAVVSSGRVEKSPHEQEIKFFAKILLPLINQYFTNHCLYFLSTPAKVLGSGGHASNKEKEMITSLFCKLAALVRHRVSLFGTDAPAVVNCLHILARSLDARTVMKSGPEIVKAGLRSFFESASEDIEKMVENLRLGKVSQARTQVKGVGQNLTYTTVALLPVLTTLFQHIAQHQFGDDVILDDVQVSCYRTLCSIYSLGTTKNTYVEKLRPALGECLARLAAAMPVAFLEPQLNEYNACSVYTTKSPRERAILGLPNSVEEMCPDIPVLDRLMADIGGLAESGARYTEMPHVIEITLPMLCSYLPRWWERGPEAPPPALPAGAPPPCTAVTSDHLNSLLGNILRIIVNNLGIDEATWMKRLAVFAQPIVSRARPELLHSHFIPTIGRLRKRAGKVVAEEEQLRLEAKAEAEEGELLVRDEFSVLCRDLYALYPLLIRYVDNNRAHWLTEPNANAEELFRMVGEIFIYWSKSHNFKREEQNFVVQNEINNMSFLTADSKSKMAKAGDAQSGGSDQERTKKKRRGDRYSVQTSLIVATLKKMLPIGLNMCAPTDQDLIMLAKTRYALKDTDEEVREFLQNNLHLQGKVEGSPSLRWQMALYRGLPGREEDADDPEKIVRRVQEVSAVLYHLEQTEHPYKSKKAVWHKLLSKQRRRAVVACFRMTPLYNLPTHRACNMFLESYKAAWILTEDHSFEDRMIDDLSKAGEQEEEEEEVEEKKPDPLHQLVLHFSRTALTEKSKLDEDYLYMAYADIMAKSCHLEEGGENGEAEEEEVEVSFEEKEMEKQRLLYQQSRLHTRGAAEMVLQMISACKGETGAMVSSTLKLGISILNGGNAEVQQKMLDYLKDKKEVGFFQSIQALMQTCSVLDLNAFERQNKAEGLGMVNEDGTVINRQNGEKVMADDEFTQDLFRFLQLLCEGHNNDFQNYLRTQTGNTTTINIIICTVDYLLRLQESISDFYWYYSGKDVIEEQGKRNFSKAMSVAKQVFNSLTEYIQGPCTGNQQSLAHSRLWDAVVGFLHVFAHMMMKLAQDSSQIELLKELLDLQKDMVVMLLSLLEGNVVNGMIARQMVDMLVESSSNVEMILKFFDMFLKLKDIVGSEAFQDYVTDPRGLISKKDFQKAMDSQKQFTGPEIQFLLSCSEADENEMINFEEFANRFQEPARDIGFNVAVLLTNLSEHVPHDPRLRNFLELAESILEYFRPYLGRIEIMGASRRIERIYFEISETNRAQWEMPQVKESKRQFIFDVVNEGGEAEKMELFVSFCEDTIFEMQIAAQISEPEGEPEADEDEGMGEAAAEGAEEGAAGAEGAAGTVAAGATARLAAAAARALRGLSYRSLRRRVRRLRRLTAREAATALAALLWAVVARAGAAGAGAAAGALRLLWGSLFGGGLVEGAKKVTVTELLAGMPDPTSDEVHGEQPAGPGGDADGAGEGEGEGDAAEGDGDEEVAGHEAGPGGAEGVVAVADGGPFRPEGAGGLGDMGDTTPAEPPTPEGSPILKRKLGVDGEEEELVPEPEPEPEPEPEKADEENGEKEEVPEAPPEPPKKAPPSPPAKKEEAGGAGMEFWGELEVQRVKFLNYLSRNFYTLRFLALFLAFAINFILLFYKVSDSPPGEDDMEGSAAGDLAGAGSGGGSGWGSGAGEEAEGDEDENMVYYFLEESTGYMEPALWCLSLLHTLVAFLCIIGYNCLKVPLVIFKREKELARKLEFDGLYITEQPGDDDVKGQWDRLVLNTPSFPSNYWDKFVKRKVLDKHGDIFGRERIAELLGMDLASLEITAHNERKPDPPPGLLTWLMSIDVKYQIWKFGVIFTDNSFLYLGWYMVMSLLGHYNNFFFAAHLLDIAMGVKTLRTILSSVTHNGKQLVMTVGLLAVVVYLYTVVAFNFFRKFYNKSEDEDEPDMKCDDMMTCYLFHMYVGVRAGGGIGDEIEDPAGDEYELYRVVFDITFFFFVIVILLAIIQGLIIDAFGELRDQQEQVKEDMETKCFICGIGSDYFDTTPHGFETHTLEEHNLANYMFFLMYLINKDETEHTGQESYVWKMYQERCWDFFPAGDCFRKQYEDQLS", "experiment": "intracellular calcium assay in HEK […] stable cell lines; selective over M4000F, RyR2, RyR3", "format": "cell-based", "design": "full-length rabbit RyR1(WT)"}, "[2]": {"target": "T1, type 1 ryanodine receptor (RyR1)", "experiment": "intracellular calcium assay in HEK […] stable cell line; compared with M4000F", "format": "cell-based", "design": "full-length rabbit RyR1(WT)"}, "[3]": {"target": "T1, type 1 ryanodine receptor (RyR1)", "experiment": "intracellular calcium assay in HEK […] cells with RyR1 WT and point mutants", "format": "cell-based", "design": "full-length rabbit RyR1"}, "[4]": {"target": "T1, type 1 ryanodine receptor (RyR1)", "experiment": "cell-based", "design": "full-length rabbit RyR1; species or system HEK 293; fluorescent calcium indicator assay, peak Fmax/F0, tetracycline-induced RyR1 expression, 384-well plate", "procedure": "There are three isoforms of RyRs in mammals (RyR1, RyR2, and RyR3). To systematically examine the pharmacological properties of each isoform, we used HEK 293 cell lines that express rabbit isoforms under tetracycline regulation. These cells were seeded in a 384-well plate and subjected to an assay in which the intracellular calcium levels were measured using a fluorescent calcium indicator upon drug administration (Fig 1B and 1C). While caffeine is a stimulant that antagonizes the adenosine receptors (IC50s on adenosine receptors are ~10 μM), it is also a typical agonist of RyRs activating all isoforms at higher dosages. Caffeine administration caused dose-dependent increases in intracellular calcium levels depending on the tetracycline-mediated expression of each isoform (Figs 1D–1F and S1A). We observed that, while caffeine causes calcium elevation in the nonexpressed controls, most likely due to the presence of endogenous RyRs in HEK 293 cells, the distinct signals in the expressed conditions indicate that each isoform is successfully expressed as functional channels. Supplementary file pbio.3003172.s001.pdf: S1 Fig Increased intracellular calcium by isoflurane is derived from intracellular calcium stores. […] Each agent was given after measuring the baseline fluorescence for 10 s, as indicated by arrows. […]"}, "[5]": {"target": "T1, type 1 ryanodine receptor (RyR1)", "experiment": "intracellular calcium assay in HEK […] cells; selectivity over M4000F", "format": "cell-based", "design": "full-length rabbit RyR1"}, "[6]": {"target": "T1, type 1 ryanodine receptor (RyR1)", "experiment": "intracellular calcium assay in HEK […] cells; caffeine-site point mutants", "format": "cell-based", "design": "full-length rabbit RyR1"}, "[7]": {"target": "T1, type 1 ryanodine receptor (RyR1)", "experiment": "intracellular calcium assay in HEK […] stable cell line", "format": "cell-based", "design": "full-length rabbit RyR1"}, "[8]": {"target": "T2, mouse RyR1(WT) (Mus musculus, UniProt E9PZQ0)", "T2 construct": "full-length mouse RyR1", "experiment": "intracellular calcium assay in HEK […] cells; response lost in M4003F", "format": "cell-based"}, "[9]": {"target": "T1, type 1 ryanodine receptor (RyR1)", "experiment": "intracellular calcium (Cal-520) assay in HEK […] cells with tetracycline-induced RyR1; chimeras and point mutants", "format": "cell-based", "design": "full-length rabbit RyR1; RyR1 Q3889-S4213 necessary and sufficient for the response"}, "[10]": {"target": "T1, type 1 ryanodine receptor (RyR1)", "experiment": "intracellular calcium assay in HEK […] stable cell line; response lost in M4000F", "format": "cell-based", "design": "full-length rabbit RyR1"}}}
{"smiles": "Oc1cccc(Br)c1", "note": "[3-BP, 3-bromophenol]", "values": [{"measurement": "intracellular calcium assay in HEK 293 stable cell lines; selective over M4000F,", "setting": "[1]", "result": "3-bromophenol (3-BP) has higher selectivity for RyR1(WT) than RyR1(M4000F), RyR2, or RyR3"}]}
{"smiles": "Oc1ccc(Br)cc1", "note": "[4-BP, 4-bromophenol]", "values": [{"measurement": "EC50", "setting": "[2]", "result": 4.7, "unit": "µM"}]}
{"smiles": "Cc1cc(O)ccc1Cl", "note": "[4-CmC, 4-chloro-m-cresol]", "values": [{"measurement": "intracellular calcium assay in HEK 293T cells with RyR1 WT and point mutants", "setting": "[3]", "result": "substitution of phenylalanine with alanine (F4062A) substantially reduced the sensitivities to both 4-CmC and isoflurane"}]}
{"smiles": "CCc1ccc(O)cc1", "note": "[4-EP, 4-ethylphenol]", "values": [{"measurement": "EC50", "setting": "[4]", "result": 24, "unit": "µM"}]}
{"smiles": "Cc1ccc(O)cc1", "note": "[4-MP, 4-methylphenol]", "values": [{"measurement": "intracellular calcium assay in HEK 293 cells; selectivity over M4000F", "setting": "[5]", "result": "4-methylphenol (4-MP) and 4-ethylphenol (4-EP), phenolic chemicals with a methyl or ethyl residue"}, {"measurement": "EC50", "setting": "[4]", "result": 31, "unit": "µM"}]}
{"smiles": "Cn1c(=O)c2c(ncn2C)n(C)c1=O", "note": "[caffeine]", "values": [{"measurement": "intracellular calcium assay in HEK 293 cells; caffeine-site point mutants", "setting": "[6]", "result": "RyR1(W4716I), RyR1(W4716L), and RyR1(F3753A) were insensitive to caffeine but were activated by isoflurane"}]}
{"smiles": "FC(F)(F)C(Cl)Br", "note": "(centres unmarked) [halothane]", "values": [{"measurement": "EC50", "setting": "[7]", "result": 288, "unit": "µM"}]}
{"smiles": "FC(F)OC(Cl)C(F)(F)F", "note": "(centres unmarked) [isoflurane]", "values": [{"measurement": "intracellular calcium assay in HEK 293 cells; response lost in M4003F", "setting": "[8]", "result": "mouse RyR1(WT) was sensitive to isoflurane, as expected, whereas mouse RyR1(M4003F) was not activated by isoflurane"}, {"measurement": "EC50", "setting": "[9]", "result": 203, "unit": "µM"}]}
{"smiles": "FCOC(C(F)(F)F)C(F)(F)F", "note": "[sevoflurane]", "values": [{"measurement": "intracellular calcium assay in HEK 293 stable cell line; response lost in M4000F", "setting": "[10]", "result": "sevoflurane, an inhaled anesthetic with clinical use, activated RyR1 but not RyR2 and RyR3"}]}
